The source of these data is patent US20060040255A1, “Cell line designated KT-1 established from tongue epithelial and use thereof” (National Food Research Institute, priority 2003, published 2006).

The structures appear in SMILES notation.

The target in assay [1] is sweet taste receptors T1r2 and T1r3 (Mus musculus, UniProt Q925D8+Q925I4). The settings on record: KT-1C cells; final concentration 5 mM; 0.5 minutes after addition.
Description: KT-1C cells which had been washed twice in PBS(−) were incubated for 30 minutes at room temperature with 1 ml of imaging buffer (NaHCO3 22 mM, KCl 5 mM, NaH2PO4 1.25 mM, glucose 10 mM, NaCl 124 mM) to which 5 μl of Fura-2-AM (1 mM dissolved in DMSO, Molecular Probe) and 5 μl of Cremophor (Nacalai Tesque) had been added, incorporating Fura-2-AM into the cells. They were then washed twice with imaging buffer to remove any Fura-2-AM that had not been incorporated into the cells.
Next the dish was filled with 1 ml of imaging buffer to which 1 mM MgCl2 and 2 mM CaCl2 had been added, and the artificial sweetener Acesul fame K (Fluka), which is known to be a ligand for sweet taste receptors T1r2 and T1r3, was added to a final concentration of 5 mM. […] After measurement, changes over time in florescence in the various cells were converted to changes in calcium concentration by the AquaCosmos software, and graphed.
Another assay relates to salt taste channel αENaC. Description: Hormone regulation of αENaC expression in cell line KT-1B (RT-PCR). As to conditions: cell line KT-1B treated for 6 days; aldosterone 1 μM, hydrocortisone 0.2 μM; compared with progesterone 0.1 μM. The assay is classed as cell-based, mouse. On the procedure:
While being cultured in the presence of hydrocortisone, cell line KT-1B constantly expresses the amiloride-sensitive sodium channel alpha subunit (αENaC), which might be involved in salt taste response.
Therefore, cell line KT-1B was treated for 6 days with the hormone progesterone (0.1 μM), aldosterone (1 μM) or hydrocortisone (0.2 μM), and expression of the salt sensing channel αENaC was investigated.
RNA was extracted with Trizol solution from the treated cell line KT-1B, and cDNA was synthesized on a scale of 40 μl using the resulting 2 μg of RNA and a Super Script First Strand cDNA synthesis kit. Using 1 μl of this cDNA as the template and primers specific to salt taste channel αENaC (0.2 μM each, Seq. Nos. 13 and 14), 2.5 units of Takara Taq were added and a PCR reaction consisting of denaturation at 95° C. for 5 minutes followed by 35 cycles of 1 minute at 95° C., 1 minute at 58° C. and 2 minutes at 72° C. was performed in a 25 μl system. 8 μl of the PCR reaction liquid was electrophoresed on a 1.5% agarose gel, stained with ethidium bromide and photographed.

The target of assay [2] is salt sensing channel αENaC (Mus musculus, UniProt Q61180). The settings on record: KT-1C cells. On the procedure:
Next they were washed twice with Na imaging buffer to remove any CoroNa-Red that had not been incorporated into the cells.
Next, the dish was filled with 1 mL of imaging buffer to which 1 mM MgCl2 and 2 mM CaCl2 had been added, and NaCl, which is known to be a salt taste channel ligand, was then added thereto to a final concentration of 50 mM. It is known that when cells with salt taste response ability (in other words, cells in which the salt sensing channel αENaC is functionally expressed) respond to NaCl (salty substance), sodium flows into the cytoplasm, and the concentration of sodium in the cytoplasm rises. Therefore, the fluorescence (580 nm) produced by CoroNa-Red when sodium flowed into the cytoplasm due to addition of NaCl was measured over time using an inverted fluorescence microscope (Leica, DMRIB) equipped with a CCD camera (Hamamatsu Photonics) controlled by AquaCosmos software (Hamamatsu Photonics). After measurement, changes over time inflorescence in the various cells were converted to changes in sodium concentration using the AquaCosmos software, and graphed.

salt sensing channel αENaC, sequence (Q61180 whole entry): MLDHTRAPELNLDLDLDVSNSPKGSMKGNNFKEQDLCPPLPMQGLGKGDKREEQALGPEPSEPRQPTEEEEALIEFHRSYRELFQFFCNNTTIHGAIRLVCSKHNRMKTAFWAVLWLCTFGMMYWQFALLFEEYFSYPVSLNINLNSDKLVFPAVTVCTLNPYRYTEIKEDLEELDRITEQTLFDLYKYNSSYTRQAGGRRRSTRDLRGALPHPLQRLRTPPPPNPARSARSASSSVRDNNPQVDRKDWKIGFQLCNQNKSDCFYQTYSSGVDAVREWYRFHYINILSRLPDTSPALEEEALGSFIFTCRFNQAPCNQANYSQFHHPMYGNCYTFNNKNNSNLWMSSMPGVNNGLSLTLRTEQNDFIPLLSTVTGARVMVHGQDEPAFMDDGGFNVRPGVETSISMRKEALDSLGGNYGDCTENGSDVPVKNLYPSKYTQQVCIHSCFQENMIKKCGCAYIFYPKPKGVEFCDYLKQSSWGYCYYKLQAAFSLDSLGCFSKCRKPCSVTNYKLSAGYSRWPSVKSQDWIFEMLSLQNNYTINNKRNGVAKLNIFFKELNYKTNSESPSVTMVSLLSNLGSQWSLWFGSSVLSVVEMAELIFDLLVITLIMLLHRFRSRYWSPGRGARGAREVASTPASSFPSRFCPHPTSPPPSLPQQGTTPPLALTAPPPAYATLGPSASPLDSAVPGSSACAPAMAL
sweet taste receptors T1r2 and T1r3, sequence (Q925I4 20-843): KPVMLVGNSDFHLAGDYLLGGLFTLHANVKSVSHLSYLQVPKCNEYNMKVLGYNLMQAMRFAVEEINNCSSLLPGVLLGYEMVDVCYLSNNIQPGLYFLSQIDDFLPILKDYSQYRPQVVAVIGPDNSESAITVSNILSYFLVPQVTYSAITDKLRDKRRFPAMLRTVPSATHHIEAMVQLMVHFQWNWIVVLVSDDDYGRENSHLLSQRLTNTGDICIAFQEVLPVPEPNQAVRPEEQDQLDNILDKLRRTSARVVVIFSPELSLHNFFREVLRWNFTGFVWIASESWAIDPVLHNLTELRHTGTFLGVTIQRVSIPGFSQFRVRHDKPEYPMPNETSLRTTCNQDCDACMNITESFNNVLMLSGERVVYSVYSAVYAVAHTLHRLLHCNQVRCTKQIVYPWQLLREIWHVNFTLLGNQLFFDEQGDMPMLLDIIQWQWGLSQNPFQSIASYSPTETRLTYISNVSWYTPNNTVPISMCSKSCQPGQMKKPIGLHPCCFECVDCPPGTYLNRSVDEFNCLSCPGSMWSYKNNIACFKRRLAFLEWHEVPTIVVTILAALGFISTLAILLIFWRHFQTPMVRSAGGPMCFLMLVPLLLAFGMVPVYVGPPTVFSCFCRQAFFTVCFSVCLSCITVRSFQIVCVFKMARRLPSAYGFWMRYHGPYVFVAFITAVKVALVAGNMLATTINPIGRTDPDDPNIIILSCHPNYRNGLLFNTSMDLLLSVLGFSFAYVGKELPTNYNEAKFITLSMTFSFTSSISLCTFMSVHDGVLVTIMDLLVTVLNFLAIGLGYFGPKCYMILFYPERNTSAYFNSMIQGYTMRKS
sweet taste receptors T1r2 and T1r3, sequence (Q925D8 21-858): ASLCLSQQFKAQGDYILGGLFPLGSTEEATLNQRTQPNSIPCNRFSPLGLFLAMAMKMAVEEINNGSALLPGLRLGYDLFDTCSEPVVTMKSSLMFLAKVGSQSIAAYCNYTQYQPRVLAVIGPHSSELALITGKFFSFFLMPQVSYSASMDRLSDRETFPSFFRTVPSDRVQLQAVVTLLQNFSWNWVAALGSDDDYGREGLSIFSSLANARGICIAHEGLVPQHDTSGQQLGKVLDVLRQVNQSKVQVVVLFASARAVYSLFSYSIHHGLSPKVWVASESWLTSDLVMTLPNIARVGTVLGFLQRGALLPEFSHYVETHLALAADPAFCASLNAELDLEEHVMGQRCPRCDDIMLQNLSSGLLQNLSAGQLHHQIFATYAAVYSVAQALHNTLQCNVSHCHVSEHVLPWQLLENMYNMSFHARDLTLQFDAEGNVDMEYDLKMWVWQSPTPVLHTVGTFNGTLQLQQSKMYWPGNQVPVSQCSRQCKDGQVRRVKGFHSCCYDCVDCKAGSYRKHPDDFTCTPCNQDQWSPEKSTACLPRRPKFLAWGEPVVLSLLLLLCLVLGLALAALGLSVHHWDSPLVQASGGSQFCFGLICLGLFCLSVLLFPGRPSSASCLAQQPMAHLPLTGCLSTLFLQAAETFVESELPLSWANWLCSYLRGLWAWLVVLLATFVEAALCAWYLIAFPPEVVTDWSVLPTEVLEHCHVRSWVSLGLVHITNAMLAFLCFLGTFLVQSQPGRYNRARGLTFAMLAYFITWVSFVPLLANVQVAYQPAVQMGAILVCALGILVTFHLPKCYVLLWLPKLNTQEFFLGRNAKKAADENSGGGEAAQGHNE

With `CC1=CC(=O)[N-]S(=O)(=O)O1.[K+]` [Acesulfame K], the “intercellular calcium concentration (Fura-2 fluorescence) after addition” value in assay [1] was “rise in intercellular calcium concentration”.
Consider `C[C@]12CCC(=O)C=C1CC[C@@H]1[C@@H]2[C@@H](O)C[C@]2(C=O)[C@@H](C(=O)CO)CC[C@@H]12` [aldosterone], for which the “amount of expression of the salt taste channel αENaC (mRNA, RT-PCR)” value with salt taste channel αENaC is “greater”.
Consider `[Cl-].[Na+]` [NaCl], for which, in assay [2] (50 mM then 150 mM added), the “dependence of intercellular sodium concentration on added concentration” value is given as “affected by the concentration of added NaCl”. The “intercellular sodium concentration (CoroNa-Red fluorescence) after addition” value in assay [2] (final concentration 50 mM, 0.5 minutes after addition) was “rise in intercellular sodium concentration”.
For `C[C@]12CCC(=O)C=C1CC[C@@H]1[C@@H]2[C@@H](O)C[C@@]2(C)[C@H]1CC[C@]2(O)C(=O)CO` [hydrocortisone], in the assay with salt taste channel αENaC, the “amount of expression of the salt taste channel αENaC (mRNA, RT-PCR)” value is “greater”.
